Values of other authors as cited in patent US20070142395A1, “Treatment of sexual dysfunction with 1-[3-[4-(3-chlorophenyl)-1-piperazinyl]propyl]-5-methoxy-3,4-dihydro-2(1H)-quinolone or salt thereof” (Vela Pharmaceuticals, Inc., priority 2005, published 2007).

Conditions: SSRI/SNRI antidepressant therapy; Montejo et al. 2001; cited from earlier work

| SMILES | incidence of sexual dysfunction as side effect |
| --- | --- |
| CN[C@H]1CC[C@@H](c2ccc(Cl)c(Cl)c2)c2ccccc21 [sertraline] | 62.9% |
| COc1ccc(C(CN(C)C)C2(O)CCCCC2)cc1 (centres unmarked) [venlafaxine] | 67.3% |
| CNCCC(Oc1ccc(C(F)(F)F)cc1)c1ccccc1 (centres unmarked) [fluoxetine] | 57.7% |
| Fc1ccc([C@@H]2CCNC[C@H]2COc2ccc3c(c2)OCO3)cc1 [paroxetine] | 70.7% |
| CN(C)CCCC1(c2ccc(F)cc2)OCc2cc(C#N)ccc21 (centres unmarked) [citalopram] | 72.7% |
